Target: T1, recombinant human plasminogen activator inhibitor-1 (PAI-1) (Homo sapiens, UniProt P05121)
T1 construct: purchased Molecular Innovations, Royal Oak, Mich
Assay: Primary Screen for PAI-1 Inhibition (chromogenic tPA activity assay)
Type: biochemical
Details: 140 nM PAI-1, 70 nM tPA, pH 6.6
Protocol: Primary Screen for PAI-1 Inhibition
The ability of the compounds of this invention to inhibit Plasminogen Activator Inhibitor-1 was established by the following experimental procedure:
Test compounds were dissolved in DMSO at a final concentration of 10 mM, then diluted […] in physiologic buffer. The inhibitory assay was initiated by the addition of the test compound (1-100 μM final concentration, maximum DMSO concentration of 0.2%) in a pH 6.6 buffer containing 140 nM recombinant human plasminogen activator inhibitor-1 (PAI-1; Molecular Innovations, Royal Oak, Mich.). Following a 1 hour incubation at room temperature, 70 nM of recombinant human tissue plasminogen activator (tPA) was added, and the combination of the test compound, PAI-1 and tPA was incubated for an additional 30 minutes. Following the second incubation, Spectrozyme-tPA (American Diagnostica, Greenwich, Conn.), a chromogenic substrate for tPA, was added and absorbance read at 405 nm at 0 and 60 minutes. Relative PAI-1 inhibition is equal to the residual tPA activity in the presence of the test compound and PAI-1. Control treatments include the complete inhibition of tPA by PAI-1 at the molar ratio employed (2:1), and the absence of any effect of the test compound on tPA alone.

T1 sequence (P05121 24-402): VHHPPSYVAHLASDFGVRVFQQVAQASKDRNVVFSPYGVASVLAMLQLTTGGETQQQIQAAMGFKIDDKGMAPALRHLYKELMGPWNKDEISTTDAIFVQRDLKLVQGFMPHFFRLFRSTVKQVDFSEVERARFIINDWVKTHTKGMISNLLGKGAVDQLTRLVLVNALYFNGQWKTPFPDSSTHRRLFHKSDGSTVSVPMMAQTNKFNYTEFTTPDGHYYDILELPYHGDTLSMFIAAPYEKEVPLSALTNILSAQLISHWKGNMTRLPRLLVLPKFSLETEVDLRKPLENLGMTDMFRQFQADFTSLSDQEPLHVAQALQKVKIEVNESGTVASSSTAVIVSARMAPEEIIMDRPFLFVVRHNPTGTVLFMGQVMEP

Inhibition at 25 µM, 6 to 78%:
CC(C)(C)c1ccc(Cn2ccc3cc(NS(=O)(=O)c4cccc(C(=O)O)c4)ccc32)cc1 [Example 1, 3-({[1-(4-tert-butylbenzyl)-1H-indol-5-yl]amino}sulfonyl)benzoic acid]
COC(=O)CN(c1ccc2c(ccn2Cc2ccc(C(C)(C)C)cc2)c1)S(=O)(=O)c1ccccc1 [Example 2, {Benzenesulfonyl-[1-(4-tert-butyl-benzyl)-1H-indol-5-yl]-amino}-acetic acid methyl ester]
CC(C)(C)c1ccc(Cn2ccc3cc(N(Cc4ccc(C(=O)O)cc4)S(=O)(=O)c4ccccc4)ccc32)cc1 [Example 3, 4-{[[1-(4-tert-Butylbenzyl)-1H-indol-5-yl](phenylsulfonyl)amino]methyl}benzoic acid]
CC(C)(C)c1ccc(Cn2ccc3cc(NS(=O)(=O)c4ccc(C(=O)O)cc4)ccc32)cc1 [Example 4, 4-({[1-(4-tert-butylbenzyl)-1H-indol-5-yl]amino}sulfonyl)benzoic acid]
CC(C)(C)c1ccc(Cn2ccc3cc(NC(=O)N[C@@H](Cc4ccccc4)C(=O)O)ccc32)cc1 [Example 5, N-({[1-(4-tert-Butylbenzyl)-1H-indol-5-yl]amino}carbonyl)-L-phenylalanine]
CC(C)(C)c1ccc(Cn2ccc3cc(NC(=O)Nc4cccc(C(=O)O)c4)ccc32)cc1 [Example 6, 3-[({[1-(4-tert-Butylbenzyl)-1H-indol-5-yl]amino}carbonyl)amino]benzoic acid]
O=C(O)COc1ccc(Cn2ccc3cc(NS(=O)(=O)c4ccc(-c5ccccc5)cc4)ccc32)cc1 [Example 7, [4-({5-[(1,1′-Biphenyl-4-ylsulfonyl)amino]-1H-indol-1-yl}methyl)phenoxy]acetic acid]
CC(C)(C)c1ccc(S(=O)(=O)Nc2ccc3c(ccn3Cc3ccc(OCC(=O)O)cc3)c2)cc1 [Example 8, {4-[(5-{[(4-tert-Butylphenyl)sulfonyl]amino}-1H-indol-1-yl)methyl]phenoxy}acetic acid]
O=C(O)C(Cc1ccccc1)n1ccc2cc(NS(=O)(=O)c3ccc(OC(F)(F)F)cc3)ccc21 (stereo not drawn) [Example 9, 3-Phenyl-2-[5-({[4-(trifluoromethoxy)phenyl]sulfonyl}amino)-1H-indol-1-yl]propanoic acid]
O=C(N[C@@H](Cc1ccccc1)C(=O)O)c1ccc(Cn2ccc3cc(NS(=O)(=O)c4ccccc4)ccc32)cc1 [Example 10, N-[4-({5-[(Phenylsulfonyl)amino]-1H-indol-1-yl}methyl)benzoyl]-L-phenylalanine]
O=C(N[C@@H](Cc1ccccc1)C(=O)O)c1ccc(Cn2ccc3cc(NS(=O)(=O)c4ccc(OC(F)(F)F)cc4)ccc32)cc1 [Example 11, N-(4-{[5-({[4-(Trifluoromethoxy)phenyl]sulfonyl}amino)-1H-indol-1-yl]methyl}benzoyl)-L-phenylalanine]
O=C(N[C@@H](Cc1ccccc1)C(=O)O)c1ccc(Cn2ccc3cc(NS(=O)(=O)c4ccc(-c5ccccc5)cc4)ccc32)cc1 [Example 12, N-[4-({5-[(1,1′-Biphenyl-4-ylsulfonyl)amino]-1H-indol-1-yl}methyl)benzoyl]-L-phenylalanine]
CC(C)(C)c1ccc(S(=O)(=O)Nc2ccc3c(ccn3Cc3ccc(C(=O)N[C@@H](Cc4ccccc4)C(=O)O)cc3)c2)cc1 [Example 13, N-{4-[(5-{[(4-tert-Butylphenyl)sulfonyl]amino}-1H-indol-1-yl)methyl]benzoyl}-L-phenylalanine]
O=C(O)CCNC(=O)c1ccc(Cn2ccc3cc(NS(=O)(=O)c4ccc(OC(F)(F)F)cc4)ccc32)cc1 [Example 14, N-(4-{[5-({[4-(Trifluoromethoxy)phenyl]sulfonyl}amino)-1H-indol-1-yl]methyl}benzoyl)-β-alanine]
O=C(O)CCNC(=O)c1ccc(Cn2ccc3cc(NS(=O)(=O)c4ccc(-c5ccccc5)cc4)ccc32)cc1 [Example 15, N-[4-({5-[(1,1′-Biphenyl-4-ylsulfonyl)amino]-1H-indol-1-yl}methyl)benzoyl]-β-alanine]
CC(C)(C)c1ccc(S(=O)(=O)Nc2ccc3c(ccn3Cc3ccc(C(=O)NCCC(=O)O)cc3)c2)cc1 [Example 16, N-{4-[(5-{[(4-tert-Butylphenyl)sulfonyl]amino}-1H-indol-1-yl)methyl]benzoyl}-β-alanine]
O=C(O)C1CCN(C(=O)c2ccc(Cn3ccc4cc(NS(=O)(=O)c5ccc(Cl)c(Cl)c5)ccc43)cc2)CC1 [Example 17, 1-{4-[(5-{[(3,4-Dichlorophenyl)sulfonyl]amino}-1H-indol-1 yl)methyl]benzoyl}piperidine-4-carboxylic acid]
O=C(O)C1CCN(C(=O)c2ccc(Cn3ccc4cc(NS(=O)(=O)c5ccc(-c6ccccc6)cc5)ccc43)cc2)CC1 [Example 18, 1-[4-({5-[(1,1′-Biphenyl-4-ylsulfonyl)amino]-1H-indol-1-yl}methyl)benzoyl]piperidine-4-carboxylic acid]
CC(C)(C)c1ccc(S(=O)(=O)Nc2ccc3c(ccn3Cc3ccc(C(=O)N4CCC(C(=O)O)CC4)cc3)c2)cc1 [Example 19, 1-{4-[(5-{[(4-tert-Butylphenyl)sulfonyl]amino}-1H-indol-1-yl)methyl]benzoyl}piperidine-4-carboxylic acid]
O=C(O)Cn1ccc2cc(NS(=O)(=O)c3ccc(-c4ccccc4)cc3)ccc21 [Example 20, {5-[(1,1′-Biphenyl-4-ylsulfonyl)amino]-1H-indol-1-yl}acetic acid]
O=C(Cn1ccc2cc(NS(=O)(=O)c3ccc(-c4ccccc4)cc3)ccc21)N[C@@H](Cc1ccccc1)C(=O)O [Example 21, N-({5-[(1,1′-Biphenyl-4-ylsulfonyl)amino]-1H-indol-1-yl}acetyl)-L-phenylalanine]
CC(C)(C)c1ccc(S(=O)(=O)Nc2ccc3c(ccn3CC(=O)N[C@@H](Cc3ccccc3)C(=O)O)c2)cc1 [Example 22, N-[(5-{[(4-tert-Butylphenyl)sulfonyl]amino}-1H-indol-1-yl)acetyl]-L-phenylalanine]
CC(C)C[C@H](NC(=O)Cn1ccc2cc(NS(=O)(=O)c3ccc(-c4ccccc4)cc3)ccc21)C(=O)O [Example 23, N-({5-[(1,1′-biphenyl-4-ylsulfonyl)amino]-1H-indol-1-yl}acetyl)-L-leucine]
CC(C)C[C@H](NC(=O)Cn1ccc2cc(NS(=O)(=O)c3ccc(C(C)(C)C)cc3)ccc21)C(=O)O [Example 24, N-[(5-{[(4-tert-butylphenyl)sulfonyl]amino}-1H-indol-1-yl)acetyl]-L-leucine]

Source: patent US7683091B2, “Substituted indoles and methods of their use” (Wyeth, priority 2005, dated 2010)
